Data taken from ChEMBL document CHEMBL1641470, “New azoles with antifungal activity: Design, synthesis, and molecular docking” (2011).
Values after ≈ are worked out from the molar mass of the structure shown.

Experiments:
Assay type in all cases: functional
Candida albicans = assay: Antifungal activity against Candida albicans ATCC Y0109 after 24 hrs by broth microdilution method
Cryptococcus neoformans = assay: Antifungal activity against Cryptococcus neoformans ATCC BLS108 after 72 hrs by broth microdilution method
Candida parapsilosis = assay: Antifungal activity against Candida parapsilosis by broth microdilution method; settings: Lodderomyces parapsilosis
Candida tropicalis = assay: Antifungal activity against Candida tropicalis by broth microdilution method
Trichophyton rubrum = assay: Antifungal activity against Trichophyton rubrum by broth microdilution method
Fusarium = assay: Antifungal activity against Fusarium by broth microdilution method
Nannizzia gypsea = assay: Antifungal activity against Microsporum gypseum by broth microdilution method
Aspergillus fumigatus = assay: Antifungal activity against Aspergillus fumigatus by broth microdilution method

Compound | MIC80 (Candida albicans) | MIC80 (Cryptococcus neoformans) | MIC80 (Candida parapsilosis) | MIC80 (Candida tropicalis) | MIC80 (Trichophyton rubrum) | MIC80 (Fusarium) | MIC80 (Nannizzia gypsea) | MIC80 (Aspergillus fumigatus)
COc1ccc(OC)c(/C=C/C(=O)Nc2ccc(N3CCN(CC(O)(Cn4cncn4)c4ccc(F)cc4F)CC3)cc2)c1 (centres undefined) | 0.0156 µg/mL (≈ 0.0258 µM) | 0.25 µg/mL (≈ 0.413 µM) | 0.25 µg/mL (≈ 0.413 µM) | 0.0625 µg/mL (≈ 0.103 µM) | 0.25 µg/mL (≈ 0.413 µM) | 4 µg/mL (≈ 6.62 µM) | 1 µg/mL (≈ 1.65 µM) | > 64 µg/mL
O=C(/C=C/c1cccc(Cl)c1)Nc1ccc(N2CCN(CC(O)(Cn3cncn3)c3ccc(F)cc3F)CC2)cc1 (centres undefined) | 0.0625 µg/mL (≈ 0.108 µM) | 1 µg/mL (≈ 1.73 µM) | 1 µg/mL (≈ 1.73 µM) | 0.25 µg/mL (≈ 0.432 µM) | 1 µg/mL (≈ 1.73 µM) | 64 µg/mL (≈ 111 µM) | 0.0156 µg/mL (≈ 0.0269 µM) | 64 µg/mL (≈ 111 µM)
O=C(/C=C/c1ccc(F)cc1)Nc1ccc(N2CCN(CC(O)(Cn3cncn3)c3ccc(F)cc3F)CC2)c(F)c1 (centres undefined) | 0.25 µg/mL (≈ 0.431 µM) | 0.25 µg/mL (≈ 0.431 µM) | 0.0156 µg/mL (≈ 0.0269 µM) | 0.0156 µg/mL (≈ 0.0269 µM) | 0.0625 µg/mL (≈ 0.108 µM) | 0.25 µg/mL (≈ 0.431 µM) | 0.25 µg/mL (≈ 0.431 µM) | 1 µg/mL (≈ 1.72 µM)
CCC(C)n1ncn(-c2ccc(N3CCN(c4ccc(OCC5COC(Cn6cncn6)(c6ccc(Cl)cc6Cl)O5)cc4)CC3)cc2)c1=O (centres undefined) [ITRACONAZOLE] | 1 µg/mL (≈ 1.42 µM) | 1 µg/mL (≈ 1.42 µM) | 0.25 µg/mL (≈ 0.354 µM) | 0.25 µg/mL (≈ 0.354 µM) | 0.0152 µg/mL (≈ 0.0215 µM) | 0.25 µg/mL (≈ 0.354 µM) | 0.0152 µg/mL (≈ 0.0215 µM) | 1 µg/mL (≈ 1.42 µM)
O=C(/C=C/c1ccccc1[N+](=O)[O-])Nc1ccc(N2CCN(CC(O)(Cn3cncn3)c3ccc(F)cc3F)CC2)c(F)c1 (centres undefined) | 0.25 µg/mL (≈ 0.411 µM) | 1 µg/mL (≈ 1.65 µM) | 1 µg/mL (≈ 1.65 µM) | 1 µg/mL (≈ 1.65 µM) | 0.25 µg/mL (≈ 0.411 µM) | 16 µg/mL (≈ 26.3 µM) | 1 µg/mL (≈ 1.65 µM) | 64 µg/mL (≈ 105 µM)
Cc1ccc(/C=C/C(=O)Nc2ccc(N3CCN(CC(O)(Cn4cncn4)c4ccc(F)cc4F)CC3)cc2)cc1 (centres undefined) | 0.0625 µg/mL (≈ 0.112 µM) | 1 µg/mL (≈ 1.79 µM) | 0.25 µg/mL (≈ 0.448 µM) | 0.25 µg/mL (≈ 0.448 µM) | 0.0156 µg/mL (≈ 0.0279 µM) | 16 µg/mL (≈ 28.6 µM) | 0.25 µg/mL (≈ 0.448 µM) | 64 µg/mL (≈ 115 µM)
O=C(/C=C/c1cccc(Br)c1)Nc1ccc(N2CCN(CC(O)(Cn3cncn3)c3ccc(F)cc3F)CC2)cc1 (centres undefined) | 0.0625 µg/mL (≈ 0.1 µM) | 1 µg/mL (≈ 1.6 µM) | 0.25 µg/mL (≈ 0.401 µM) | 0.25 µg/mL (≈ 0.401 µM) | 0.0625 µg/mL (≈ 0.1 µM) | 1 µg/mL (≈ 1.6 µM) | 1 µg/mL (≈ 1.6 µM) | 16 µg/mL (≈ 25.7 µM)
O=C(/C=C/c1cccc([N+](=O)[O-])c1)Nc1ccc(N2CCN(CC(O)(Cn3cncn3)c3ccc(F)cc3F)CC2)cc1 (centres undefined) | 0.0156 µg/mL (≈ 0.0265 µM) | 0.25 µg/mL (≈ 0.424 µM) | 0.0625 µg/mL (≈ 0.106 µM) | 0.25 µg/mL (≈ 0.424 µM) | 0.0625 µg/mL (≈ 0.106 µM) | 1 µg/mL (≈ 1.7 µM) | 0.25 µg/mL (≈ 0.424 µM) | 4 µg/mL (≈ 6.78 µM)
C[C@@H](c1ncncc1F)[C@](O)(Cn1cncn1)c1ccc(F)cc1F [VORICONAZOLE] | 0.0152 µg/mL (≈ 0.0435 µM) | 0.0152 µg/mL (≈ 0.0435 µM) | 1 µg/mL (≈ 2.86 µM) | 0.25 µg/mL (≈ 0.716 µM) | 0.0039 µg/mL (≈ 0.0112 µM) | 0.0152 µg/mL (≈ 0.0435 µM) | 0.0039 µg/mL (≈ 0.0112 µM) | > 64 µg/mL
O=C(/C=C/c1ccc([N+](=O)[O-])cc1)Nc1ccc(N2CCN(CC(O)(Cn3cncn3)c3ccc(F)cc3F)CC2)cc1 (centres undefined) | 0.0625 µg/mL (≈ 0.106 µM) | 1 µg/mL (≈ 1.7 µM) | 1 µg/mL (≈ 1.7 µM) | 0.25 µg/mL (≈ 0.424 µM) | 0.0156 µg/mL (≈ 0.0265 µM) | 16 µg/mL (≈ 27.1 µM) | 0.0625 µg/mL (≈ 0.106 µM) | 4 µg/mL (≈ 6.78 µM)
N#Cc1ccc(/C=C/C(=O)Nc2ccc(N3CCN(CC(O)(Cn4cncn4)c4ccc(F)cc4F)CC3)c(F)c2)cc1 (centres undefined) | 0.25 µg/mL (≈ 0.425 µM) | 1 µg/mL (≈ 1.7 µM) | 1 µg/mL (≈ 1.7 µM) | 1 µg/mL (≈ 1.7 µM) | 4 µg/mL (≈ 6.81 µM) | 64 µg/mL (≈ 109 µM) | 4 µg/mL (≈ 6.81 µM) | > 64 µg/mL
O=C(/C=C/c1ccc(Cl)cc1)Nc1ccc(N2CCN(CC(O)(Cn3cncn3)c3ccc(F)cc3F)CC2)c(F)c1 (centres undefined) | 0.25 µg/mL (≈ 0.419 µM) | 0.25 µg/mL (≈ 0.419 µM) | 0.0156 µg/mL (≈ 0.0261 µM) | 0.0625 µg/mL (≈ 0.105 µM) | 0.25 µg/mL (≈ 0.419 µM) | 0.25 µg/mL (≈ 0.419 µM) | 0.0625 µg/mL (≈ 0.105 µM) | 1 µg/mL (≈ 1.67 µM)
O=C(/C=C/c1ccc(Cl)c(Cl)c1)Nc1ccc(N2CCN(CC(O)(Cn3cncn3)c3ccc(F)cc3F)CC2)c(F)c1 (centres undefined) | 1 µg/mL (≈ 1.58 µM) | 1 µg/mL (≈ 1.58 µM) | 0.25 µg/mL (≈ 0.396 µM) | 0.0625 µg/mL (≈ 0.099 µM) | 0.0625 µg/mL (≈ 0.099 µM) | 0.25 µg/mL (≈ 0.396 µM) | 0.25 µg/mL (≈ 0.396 µM) | 4 µg/mL (≈ 6.33 µM)
COc1ccc(OC)c(/C=C/C(=O)Nc2ccc(N3CCN(CC(O)(Cn4cncn4)c4ccc(F)cc4F)CC3)c(F)c2)c1 (centres undefined) | 0.0625 µg/mL (≈ 0.1 µM) | 1 µg/mL (≈ 1.61 µM) | 1 µg/mL (≈ 1.61 µM) | 0.25 µg/mL (≈ 0.402 µM) | 0.0625 µg/mL (≈ 0.1 µM) | 64 µg/mL (≈ 103 µM) | 1 µg/mL (≈ 1.61 µM) | > 64 µg/mL
O=C(/C=C/c1cccc(Cl)c1)Nc1ccc(N2CCN(CC(O)(Cn3cncn3)c3ccc(F)cc3F)CC2)c(F)c1 (centres undefined) | 1 µg/mL (≈ 1.67 µM) | 0.25 µg/mL (≈ 0.419 µM) | 0.25 µg/mL (≈ 0.419 µM) | 0.0625 µg/mL (≈ 0.105 µM) | 0.25 µg/mL (≈ 0.419 µM) | 1 µg/mL (≈ 1.67 µM) | 0.0625 µg/mL (≈ 0.105 µM) | 1 µg/mL (≈ 1.67 µM)
Cc1ccc(/C=C/C(=O)Nc2ccc(N3CCN(CC(O)(Cn4cncn4)c4ccc(F)cc4F)CC3)c(F)c2)cc1 (centres undefined) | 0.25 µg/mL (≈ 0.434 µM) | 4 µg/mL (≈ 6.94 µM) | 1 µg/mL (≈ 1.73 µM) | 0.0625 µg/mL (≈ 0.108 µM) | 0.25 µg/mL (≈ 0.434 µM) | 1 µg/mL (≈ 1.73 µM) | 0.25 µg/mL (≈ 0.434 µM) | 1 µg/mL (≈ 1.73 µM)
O=C(/C=C/c1ccccc1)Nc1ccc(N2CCN(CC(O)(Cn3cncn3)c3ccc(F)cc3F)CC2)c(F)c1 (centres undefined) | 0.25 µg/mL (≈ 0.444 µM) | 0.0156 µg/mL (≈ 0.0277 µM) | 0.0625 µg/mL (≈ 0.111 µM) | 0.0625 µg/mL (≈ 0.111 µM) | 0.0625 µg/mL (≈ 0.111 µM) | 0.25 µg/mL (≈ 0.444 µM) | 0.25 µg/mL (≈ 0.444 µM) | 1 µg/mL (≈ 1.78 µM)
O=C(/C=C/c1ccc([N+](=O)[O-])cc1)Nc1ccc(N2CCN(CC(O)(Cn3cncn3)c3ccc(F)cc3F)CC2)c(F)c1 (centres undefined) | 0.0156 µg/mL (≈ 0.0257 µM) | 1 µg/mL (≈ 1.65 µM) | 0.25 µg/mL (≈ 0.411 µM) | 0.25 µg/mL (≈ 0.411 µM) | 0.0625 µg/mL (≈ 0.103 µM) | 1 µg/mL (≈ 1.65 µM) | 0.25 µg/mL (≈ 0.411 µM) | > 64 µg/mL
O=C(/C=C/c1cccc(F)c1)Nc1ccc(N2CCN(CC(O)(Cn3cncn3)c3ccc(F)cc3F)CC2)cc1 (centres undefined) | 0.0156 µg/mL (≈ 0.0277 µM) | 0.25 µg/mL (≈ 0.444 µM) | 0.25 µg/mL (≈ 0.444 µM) | 0.25 µg/mL (≈ 0.444 µM) | 0.25 µg/mL (≈ 0.444 µM) | 1 µg/mL (≈ 1.78 µM) | 0.0156 µg/mL (≈ 0.0277 µM) | 4 µg/mL (≈ 7.11 µM)
O=C(/C=C/c1ccccc1Cl)Nc1ccc(N2CCN(CC(O)(Cn3cncn3)c3ccc(F)cc3F)CC2)cc1 (centres undefined) | 0.0039 µg/mL (≈ 0.00674 µM) | 0.25 µg/mL (≈ 0.432 µM) | 0.25 µg/mL (≈ 0.432 µM) | 0.0625 µg/mL (≈ 0.108 µM) | 0.0156 µg/mL (≈ 0.0269 µM) | 1 µg/mL (≈ 1.73 µM) | 0.0156 µg/mL (≈ 0.0269 µM) | 4 µg/mL (≈ 6.91 µM)
COc1ccc(/C=C/C(=O)Nc2ccc(N3CCN(CC(O)(Cn4cncn4)c4ccc(F)cc4F)CC3)cc2)cc1OC (centres undefined) | 0.0156 µg/mL (≈ 0.0258 µM) | 0.25 µg/mL (≈ 0.413 µM) | 0.0625 µg/mL (≈ 0.103 µM) | 0.0625 µg/mL (≈ 0.103 µM) | 0.25 µg/mL (≈ 0.413 µM) | 1 µg/mL (≈ 1.65 µM) | 0.25 µg/mL (≈ 0.413 µM) | 4 µg/mL (≈ 6.62 µM)
O=C(/C=C/c1ccc(Br)cc1)Nc1ccc(N2CCN(CC(O)(Cn3cncn3)c3ccc(F)cc3F)CC2)cc1 (centres undefined) | 0.0625 µg/mL (≈ 0.1 µM) | 0.25 µg/mL (≈ 0.401 µM) | 0.25 µg/mL (≈ 0.401 µM) | 0.25 µg/mL (≈ 0.401 µM) | 0.0156 µg/mL (≈ 0.025 µM) | 1 µg/mL (≈ 1.6 µM) | 0.25 µg/mL (≈ 0.401 µM) | 4 µg/mL (≈ 6.42 µM)
O=C(/C=C/c1ccccc1F)Nc1ccc(N2CCN(CC(O)(Cn3cncn3)c3ccc(F)cc3F)CC2)cc1 (centres undefined) | 0.0039 µg/mL (≈ 0.00693 µM) | 0.0625 µg/mL (≈ 0.111 µM) | 0.0625 µg/mL (≈ 0.111 µM) | 0.0156 µg/mL (≈ 0.0277 µM) | 0.25 µg/mL (≈ 0.444 µM) | 1 µg/mL (≈ 1.78 µM) | 0.0625 µg/mL (≈ 0.111 µM) | > 64 µg/mL
